Results on two molecules are retold here after PMC10107299, “Neutralizing the Impact of the Virulence Factor LecA from Pseudomonas aeruginosa on Human Cells with New Glycomimetic Inhibitors” (Angewandte Chemie (International Ed. in English), 2023).

≈ marks a conversion by molar mass, not a printed value. Read-outs that look alike come from different tables or passages of the source. Bounds are passed on as bounds.

Data set [1] can be described thus: Kinetic solubility in TBS/Ca2+ buffer (HPLC-MS). The format is physicochemical. The settings on record: aqueous buffer, kinetic from dmso stock; TBS/Ca2+ buffer pH 7.4, 1 % DMSO, N≥3; read-out: Solubility S (kinetic). The protocol:
Next, we quantified the solubility of at least one representative of each new class and of one parent bisacylhydrazone in aqueous media (Table 1). […]
TBS/Ca2+ buffer (20 mM Tris, 137 mM NaCl, 2.6 mM KCl at pH 7.4 supplemented with 1 mM […]
CaCl2) in presence of 25% DMSO. […]
Kinetic solubility was determined on the analytical HPLC-MS using Compass QuantAnalysis quantification software (Bruker). Samples were prepared from DMSO stock solutions by dilution with TBS/Ca2+ buffer to 100 µM with 1% DMSO present. Samples were incubated on a shaker for 1 h at r.t., centrifuged (21380 g, 20 min), supernatants were diluted with DMSO (1:3), analyzed by HPLC-MS and fitted to the individual calibration curves.
Every experiment was repeated independently at least three times. […]

The nature of data set [2]: In vitro metabolic stability, mouse liver microsomes. The data set is classed as in vitro ADME. The settings on record: N=3, read-out: CLint MLM. The protocol:
(§1) Acetonitrile and caffeine were dispensed using a Mantis Formulatrix. Then samples were centrifuged for 20 min at 2.270 x g at 4 °C and the supernatants were transferred to 96-well Greiner V-bottom plates. Peak areas of each compound and of the internal standard were analyzed using the MultiQuant 3.0 software (AB Sciex). Peak areas of the respective compound were normalized to the internal standard peak area and to the respective peak areas at time point 0 min: (C/D)/(A/B) with A: peak area of the compound at time point 0 min, B: peak area of the internal standard at time point 0 min, C: peak area of the compound at the respective time point, D: peak area of the internal standard at the respective time point.
(§2) In vitro metabolic stability assay
(§3) Liver microsomes (mouse and human, Thermo Fisher) were thawed slowly on ice. 20 mg/mL of microsomes, 2 µL of a 100 µM solution of every compound and 183 µL of 100 mM phosphate buffer were incubated 5 min at 37 °C in a water bath. Reactions were initiated using 10 µL of 20 mM NADPH (CarlRoth). Samples were incubated in three replicates at 37 °C under gentle agitation at 150 rpm. At 0, 5, 15, 30, and 60 min, reactions were terminated by the addition of 180 µL acetonitrile using a Mantis Formulatrix dispenser. Samples were vortexed for 5 min using an Eppendorf MixMate vortex mixer and centrifuged at 2.270 x g for 20 min at 4 °C. The supernatants were transferred to 96-well Greiner V-bottom plates, sealed and analyzed according to the section HPLC-MS analysis. Peak areas of the respective time point of the compounds were normalized to the peak area at time point 0 min. Then half-life was calculated using linear regression (Microsoft Excel). Clint [µL/min/mg protein] was calculated using the following formula: […]
In general terms: Microsomes from liver hold many membrane-bound enzymes, among them those of drug oxidation.

A short description of data set [3]: In vitro metabolic stability, human liver microsomes. The format is in vitro ADME. To be noted: N=3, read-out: CLint HLM. Here is the method:
We then determined the in vitro metabolic stability in plasma and liver microsomes as well as plasma protein binding for a selected subset of the synthesized LecA inhibitors, i.e. D1, D2, H1, H2 and L2 and compared them to the parent bisacylhydrazone 14 (Table 2). […] The metabolic stability of the compounds differed in presence of human liver microsomes (HLM). Introduction of a pyridine ring decreased stability (H1 CLint=28.6 μL min^−1/mg protein, H2 CLint=32.5 μL min^−1/mg protein) compared to the benzene analogues (D1 CLint=21.9 μL min^−1/mg protein, D2 CLint=21.0 μL min^−1/mg protein) and to the parent acylhydrazone 14 (CLint=19.6 μL min^−1/mg protein). […]
as §1, with “mixer (Eppendorf). Acetonitrile” for “Acetonitrile”
as §2, §3

A further data set in a line: in vitro. The data set is classed as in vitro ADME. The settings on record: pH 7.4, 37 °C. The protocol: Then, we analyzed the stability of the compounds in plasma. […] The observed increase in plasma stability of the tested amide derivatives compared to bisacylhydrazone 14 supports our design hypothesis for the isosteric replacement of the bisacylhydrazone linking motif. […]
Each compound dissolved in DMSO was added to mouse plasma (pH 7.4, 37 °C) or to human plasma (pH 7.4, 37 °C) to yield a final concentration of 1 µM. In addition, procaine and procainamide (dissolved in DMSO) were added to mouse plasma or to human plasma (pH 7.4, 37 °C) to yield a final concentration of 1 µM. Procaine served as positive control as it is unstable in mouse plasma. Procainamide served as negative control as it is stable in mouse plasma. The samples were incubated for 0 min, 15 min, 30 min, 60 min, 90 min, 120 min and 240 min at 37 °C. At each time point, 10 µl of the respective sample was extracted with 90 µL acetonitrile containing 12.5 ng/mL caffeine as internal standard for 5 min at 2000 rpm on a MixMate vortex […]
as §1, with “mixer (Eppendorf). Acetonitrile” for “Acetonitrile”, “point. […]” for “point.”
2 hours at 800 rpm on an Eppendorf MixMate vortex-mixer. Then samples were withdrawn from the respective chambers. To 25 µL of each dialysis sample, 25 µL of plasma and to 25 µL of plasma sample, 25 µL of dialysis buffer was added. Then 150 µL ice-cold extraction solvent (ACN/H2O (90:10) containing 12.5 ng/mL caffeine as internal standard) was added. Samples were incubated for 30 min on ice. Then samples were centrifuged at 4 °C at 2270 x g for 10 min.

In a further data set the test system is P. aeruginosa PAO1. In words: Invasion assay of P. aeruginosa PAO1 into H1299 cells. The format is cell-based, Pseudomonas aeruginosa. The settings on record: PAO1 into H1299 cells, N≥4. Here is the method:
P. aeruginosa is able to invade non‐phagocytic cells via a lipid zipper mechanism.[10] Binding of LecA to the glycosphingolipid Gb3 followed by LecA‐induced receptor clustering plays a crucial role in this process. The LecA ligand 4‐nitrophenyl α‐ D‐galactopyranoside (PNPG) has been previously shown to interfere with these events at a high concentration of 10 mM leading to a reduction of bacterial invasiveness to 30–60 % as compared to untreated bacteria (100 % invasiveness).[10, 31] For invasion assays, H1299 cells were incubated with P. aeruginosa in presence and absence of LecA inhibitors, followed by killing of extracellular bacteria with the antibiotic amikacin. Then, all intracellular bacteria were released by lysis of the human cells and viable bacteria were quantified by plating. To assess the impact of LecA inhibitors on the invasiveness, the influence of the divalent LecA inhibitor L2 on bacterial invasion into host cells was evaluated and compared to PNPG. […] In contrast, the divalent LecA ligand L2 achieved an invasion decrease to 44 % already at 100 μM (Figure 5c). L2 was thus able to reach a similar reduction of invasion at a 100‐fold lower concentration than the one needed for PNPG. […]
lectin-inhibitor solution for 24 h at 37 °C. In order to depict exactly the same position for each wound, marker lines were drawn on the bottom of the 12-well plates for each well. The samples were imaged with an EVOS microscope (PEQLAB by VWR Life Sciences, Avantor […]
Excel. […]
A chromosomally GFP-tagged Gentamicin-resistant Pseudomonas aeruginosa PAO1 strain was cultured (LB medium supplemented with 60 µg/mL Gentamicin, 37 °C, 180 rpm, 16 h) and invasion assays were performed in analogy to Eierhoff et al..[13] 1.5 x 10^4 H1299 cells per well were seeded one day prior to the invasion assay in a 96-well plate with flat bottom. An […]
overnight culture of P. aeruginosa was centrifuged for 5 min at 3000 x g, washed with PBS (- /-) and re-suspended in RPMI 1640 medium. The newly synthesized divalent LecA ligand L2 was compared to 4-nitrophenyl α-D-galactopyranoside (PNPG; Sigma-Aldrich, Chemie GmbH, Darmstadt, Germany). […]
Subsequently, cells were washed three times with DPBS and lysed by incubation with 0.25% (v/v) Triton X-100 (Carl Roth GmbH & Co. KG, Karlsruhe, Germany) for 5 min at 37 °C and 180 rpm. […] Bacterial colonies were counted the next day. […] The invasion rate was calculated as the number of intracellularly localized bacteria divided by the total number of non-treated bacteria, bacteria that were not treated with any ligands and neither amikacin, thus the number of P. aeruginosa that successfully invaded or stayed attached to the host cells. Experiments were repeated independently at least four times (N ≥ 4) and evaluated […]

The next data set has as its system P. aeruginosa. Also on record: method as in PMID 25136128, PMID 25044671. To be noted: 10 mM; cited from earlier work.

`O=C(N/N=C/c1ccc(OCCOc2ccc(/C=N/NC(=O)c3ccc(O[C@@H]4O[C@H](CO)[C@H](O)[C@H](O)[C@H]4O)cc3)cc2)cc1)c1ccc(O[C@@H]2O[C@H](CO)[C@H](O)[C@H](O)[C@H]2O)cc1` [Compound 14, reference compound]: the kinetic solubility – broadly, the concentration staying in solution when a stock, usually in DMSO, is diluted into the medium – at 1 h in data set [1] worked out at 1.6 ± 0.4 µM (≈ 1.38 µg/mL). Further, the microsomal CLint at 1 µM was under 23 µL/min/mg in data set [2] and 19.6 µL/min/mg in data set [3]. In addition, the half-life at 1 µM in “in vitro” (human plasma, read-out: Plasma stability t1/2 Human) is 2.06 h; in the data set “in vitro” (mouse plasma, read-out: Plasma stability t1/2 Mouse), 0.815 h.

On to `O=[N+]([O-])c1ccc(O[C@H]2O[C@H](CO)[C@H](O)[C@H](O)[C@H]2O)cc1` [PNPG, 4-nitrophenyl α-D-galactopyranoside, reference compound], for which the “Bacterial invasiveness (untreated bacteria 100 %)” value in the data set on P. aeruginosa PAO1 (100 μM inhibitor) is on record as 89%; with P. aeruginosa PAO1 (10 mM inhibitor), 44%; with P. aeruginosa it was 30–60%.
